Results as given in US20030186423A1, “Amidase from variovorax” (Degussa AG, priority 2001, published 2003).

What was measured:
Assay type in all cases: biochemical, Variovorax paradoxus
D-amidase [1] = assay: Enzyme test for acid amides, activity by determination of ammonium ions with glutamate dehydrogenase; details: for Activity with respect to Tle-NH2: DL-Tle-NH2 = 1; for Relative act.: partly purified D-amidase after the 2nd chromatography step (0.51 U/mg)
Procedure: The activity was measured by determination of the ammonium ions with glutamate dehydrogenase (Bergmeyer, H. U., and Beutler, H.-O. (1985), Ammonia. In: Methods of Enzymatic Analysis. VCH-Verlag, 3rd edition, vol. 8: 454-461, Weinheim). […] The substrates were employed in the enzyme test at 40 mM, except for succinic acid diamide and adipic acid diamide, each at 10 mM, and benzylamide at 20 mM. Since the activities were determined only at in each case one substrate concentration, relative activities are stated.
(§1) In the conversion of tert-leucinamide (gen. acid amides) by the D-amidase, the formation of ammonia or ammonium ions and tert-leucine (gen. acid) in equimolar amounts occurs. […] The change in concentration of the components participating can be measured in an enzyme test, which comprises incubation of the following test batch for 10-60 minutes at 30° C.
(§2) The enzyme test was started by addition of the substrate and the reaction was stopped by heating at 95° C. for three minutes. The analysis of the reaction products was carried out for ammonium ions by enzymatic determination of ammonium by glutamate dehydrogenase (Bergmeyer, H.,U., and Beutler, H.-O. (1985) Ammonia. In: Methods of Enzymatic Analysis. VCH-Verlag, 3rd edition, vol. 8: 454-461, Weinheim) and for D- and L-tert-leucine by means of HPLC (Bruckner, H., Wittner R., and Godel H., (1991) Fully automated high-performance liquid chromatographic separation of DL-amino acids derivatized with o-phthaldialdehyde together with N-isopropyl-cysteine. Application to food samples. Anal. Biochem. 144(1): 204-206). Batches to which no substrate were added served as controls.
The enzyme glutamate dehydrogenase (GluDH; E.C.1.4.1.3) converts 2-oxoglutarate into L-glutamate, ammonium ions being consumed and NADH being oxidized to NAD+(Bergmeyer, H.,U. and Beutler, H.-O. (1985), Ammonia. In: Methods of Enzymatic Analysis. VCH-Verlag, 3rd edition, vol. 8: 454-461, Weinheim). The amount of NADH consumed during the reaction is equivalent to the amount of ammonium ions. The change in the concentration of NADH is the measurement parameter and can be determined spectrophotometrically at a wavelength of 340 nm.
The test components were pipetted into cells of plastic (1.5 ml semimicro disposable cells, Brand) and mixed and the extinction at 340 nm was determined after 5 min. 10 μl GluDH were then added, and after the reaction had gone to completion, as a rule after 30 min, the extinction was measured again.

D-amidase [2] = assay: Enzyme test for amino acid amides and α-hydroxycarboxylic acid amides (HPLC or NH4+ determination); details: for Rel. activity with respect to D and L: activity for the lower enantiomer set at 1; for Activity with respect to Tle-NH2 / Specific activity: substrate 40 mM; for Activity with respect to Tle-NH2: DL-Tle-NH2 = 1; for Specific activity: partly purified D-amidase after the 2nd chromatography step (0.56 U/mg), Pro-, Lac-, MHA-NH2 by NH4+ determination
Procedure: For prolinamide, and the α-hydroxycarboxylic acid amides lactic acid amide (Lac-NH2) and 2-hydroxy-4-methylmercaptobutyric acid amid (MHA-NH2), the methionine-analogous α-hydroxycarboxylic acid amide, determination of the product with the previous HPLC analysis is not possible. For these substrates, the activity was determined with the aid of NH4^+ determination. […] All the substrates were employed in the enzyme test at 40 mM. In the 4th column, for further comparison the activity for the lower enantiomer has been set at 1 and a relative activity for the preferred enantiomer has been calculated therefrom.
as §1, §2
(§3) The separation and quantitative determination of the enantiomers D- and L-tert-leucine were carried out by a “chiral derivatization” on the basis of o-phthaldialdehyde (OPA)/N-isobutyryl-L-cysteine or N-isobutyryl-D-cysteine (Brückner, H.; Wittner R. and Godel H. (1991), Fully automated high-performance liquid chromatographic separation of DL-amino acids derivatized with o-Phthaldialdehyde together with N-isopropyl-cysteine. Application to food samples. Anal. Biochem. 144, 204-206). The diastereomeric isoindole derivatives formed were separated on an RP-18 (reversed phase) column and detected by fluorescence. A two-buffer system of aqueous acetate buffer and an acetonitrile/water mixture was used as the mobile phase.

D-amidase [3] = assay: Kinetic cleavage of racemic amino acid amides: enantioselectivity as a function of the conversion
Procedure: To evaluate the suitability for kinetic cleavage of racemic DL-Tle-NH2, the enantioselectivity was determined as a function of the conversion.
DL-Valin-, DL-leucin- and DL-phenylalaninamide were alos tested in this respect. For this, the enantioselectivity was determined as function of the conversion with partly purified enzyme from Variovorax paradoxus 19-3 after the 1st chromatography step.
as §3

[4] = conversion 4%, partly purified enzyme after the 1st chromatography step
[5] = conversion 51%, partly purified enzyme after the 1st chromatography step

Row | Compound | Rel. activity with respect to D and L (D-amidase [2]) | Activity with respect to Tle-NH2 (D-amidase [2]) | Specific activity (D-amidase [2]) [U/mg] | further results
1 | NC(=O)CCC(N)=O [Succinic acid diamide] | – | – | – | Activity with respect to Tle-NH2 (D-amidase [1]; substrate 10 mM): 2.1; Relative act. (D-amidase [1]; substrate 10 mM): 1.1 U/mg
2 | CC(C)[C@H](N)C(N)=O [L-Val-NH2] | 1 | 1.2 | 0.59 | –
3 | CSCCC(N)C(N)=O (racemic) [DL-Met-NH2] | 2.7 | 230 | 130 | –
4 | CC(C)C(N)=O [Isobutyramide] | – | – | – | Activity with respect to Tle-NH2 (D-amidase [1]; substrate 40 mM): 33; Relative act. (D-amidase [1]; substrate 40 mM): 15 U/mg
5 | Benzylamide | – | – | – | Activity with respect to Tle-NH2 (D-amidase [1]; substrate 20 mM): 5.2; Relative act. (D-amidase [1]; substrate 20 mM): 2.6 U/mg
6 | NC(=O)c1cccnc1 [Nicotinamide] | – | – | – | Activity with respect to Tle-NH2 (D-amidase [1]; substrate 40 mM): 19; Relative act. (D-amidase [1]; substrate 40 mM): 8.5 U/mg
7 | CC(=O)CC(N)=O [Acetoacetamide] | – | – | – | Activity with respect to Tle-NH2 (D-amidase [1]; substrate 40 mM): 130; Relative act. (D-amidase [1]; substrate 40 mM): 58 U/mg
8 | NC(=O)[C@@H]1CCCN1 [D-Pro-NH2, prolinamide] | 1 | 24 | 12 | –
9 | CSCC[C@H](N)C(N)=O [L-Met-NH2] | 1 | 86 | 48 | –
10 | NC(=O)[C@@H]1CCCN1 [L-Pro-NH2, prolinamide] | 2.3 | 56 | 28 | –
11 | NC(=O)[C@H](N)Cc1ccccc1 [D-Phe-NH2] | 4.6 | 890 | 500 | –
12 | CC(C)C[C@@H](N)C(N)=O [D-Leu-NH2] | 15 | 400 | 220 | –
13 | C[C@H](N)C(N)=O [L-Ala-NH2] | 1 | 15 | 7.7 | –
14 | NC=O [Formamide] | – | – | – | Activity with respect to Tle-NH2 (D-amidase [1]; substrate 40 mM): 0.13; Relative act. (D-amidase [1]; substrate 40 mM): 0.061 U/mg
15 | CSCCC(O)C(N)=O (racemic) [DL-MHA-NH2, 2-hydroxy-4-methylmercaptobutyric acid amid] | – | 150 | 82 | –
16 | NC(=O)CCCCC(N)=O [Adipic acid diamide] | – | – | – | Activity with respect to Tle-NH2 (D-amidase [1]; substrate 10 mM): 14; Relative act. (D-amidase [1]; substrate 10 mM): 7.0 U/mg
17 | C[C@@H](N)C(N)=O [D-Ala-NH2] | 3.0 | 44 | 23 | –
18 | N[C@H](Cc1ccccc1)C(=O)O [D-Phe] | – | – | – | enantioselectivity (D-amidase [3]; range from 40 to 50% conversion, partly purified enzyme after the 1st chromatography step): ~55%
19 | NC(=O)CC(N)=O [Malonic acid diamide] | – | – | – | Activity with respect to Tle-NH2 (D-amidase [1]; substrate 40 mM): 2.9; Relative act. (D-amidase [1]; substrate 40 mM): 1.5 U/mg
20 | CC(N)=O [Acetamide] | – | – | – | Activity with respect to Tle-NH2 (D-amidase [1]; substrate 40 mM): 4.0; Relative act. (D-amidase [1]; substrate 40 mM): 2.1 U/mg
21 | CCC(N)=O [Propionamide] | – | – | – | Activity with respect to Tle-NH2 (D-amidase [1]; substrate 40 mM): 26; Relative act. (D-amidase [1]; substrate 40 mM): 12 U/mg
22 | NC(=O)C(N)Cc1ccccc1 (racemic) [DL-Phe-NH2, DL-phenylalaninamide] | – | – | – | E value (D-amidase [3]; conversion 4%): 5.6; ee D-Val (D-amidase [3]; [4]): 68.8%; E value (D-amidase [3]; conversion 14%): 5.2; ee D-Val (D-amidase [3]; conversion 14%, partly purified enzyme after the 1st chromatography step): 65.1%; E value (D-amidase [3]; conversion 26%): 5.1; ee D-Val (D-amidase [3]; conversion 26%, partly purified enzyme after the 1st chromatography step): 61.5%; E value (D-amidase [3]; conversion 36%): 5.2; ee D-Val (D-amidase [3]; conversion 36%, partly purified enzyme after the 1st chromatography step): 58.3%; E value (D-amidase [3]; conversion 51%): 5.1; ee D-Val (D-amidase [3]; [5]): 50.9%; E value (average) (D-amidase [3]; racemic amide, calculated from Table 3): 5
23 | CCCC(N)=O [Butyramide] | – | – | – | Activity with respect to Tle-NH2 (D-amidase [1]; substrate 40 mM): 37; Relative act. (D-amidase [1]; substrate 40 mM): 17 U/mg
24 | CC(C)C[C@H](N)C(N)=O (racemic) [DL-Leu-NH2] | – | – | – | E value (D-amidase [3]; conversion 4%): 470; ee D-Val (D-amidase [3]; [4]): 99.6%; E value (D-amidase [3]; conversion 18%): 130; ee D-Val (D-amidase [3]; conversion 18%, partly purified enzyme after the 1st chromatography step): 98.1%; E value (D-amidase [3]; conversion 33%): 120; ee D-Val (D-amidase [3]; conversion 33%, partly purified enzyme after the 1st chromatography step): 97.3%; E value (D-amidase [3]; conversion 40%): 114; ee D-Val (D-amidase [3]; conversion 40%, partly purified enzyme after the 1st chromatography step): 96.7%; E value (D-amidase [3]; conversion 48%): 53; ee D-Val (D-amidase [3]; conversion 48%, partly purified enzyme after the 1st chromatography step): 90.8%; E value (D-amidase [3]; conversion 51%): 41; ee D-Val (D-amidase [3]; [5]): 86.7%
25 | CCCCC(N)=O [Valeric acid amide] | – | – | – | Activity with respect to Tle-NH2 (D-amidase [1]; substrate 40 mM): 36; Relative act. (D-amidase [1]; substrate 40 mM): 16 U/mg
26 | NC(=O)[C@@H](N)Cc1c[nH]c2ccccc12 [L-Trp-NH2] | 1 | 62 | 34 | –

The next lines start with results.

Row | Rel. activity with respect to D and L (D-amidase [2]) | Activity with respect to Tle-NH2 (D-amidase [2]) | Specific activity (D-amidase [2]) [U/mg] | Compound | further results
27 | 1 | 190 | 110 | NC(=O)[C@@H](N)Cc1ccccc1 [L-Phe-NH2] | –
28 | – | 0.35 | 0.17 | CC[C@H](C)[C@H](N)C(N)=O [L-Ile-NH2] | –
29 | 1.1 | 66 | 33 | CC(O)C(N)=O [L-Lac-NH2, lactic acid amide] | –
30 | 1 | 59 | 29 | CC(O)C(N)=O [D-Lac-NH2, lactic acid amide] | –
31 | 11 | 13 | 6.9 | CC(C)[C@@H](N)C(N)=O [D-Val-NH2] | –
32 | 2.5 | 160 | 86 | NC(=O)C(N)Cc1c[nH]c2ccccc12 (racemic) [DL-Trp-NH2] | –
33 | 1 | 26 | 15 | CC(C)C[C@H](N)C(N)=O [L-Leu-NH2] | –
34 | – | 100 | 47 | NC(=O)[C@@H](N)Cc1ccc(O)cc1 [L-Tyr-NH2] | –
